From PMC10062379 (Archives of biochemistry and biophysics, 2022)

Test system: HeLa
Experiment: cells
Set-up: species or system OVCAR-8, NCI/ADR-RES
Settings: Homo sapiens, 96 h, read-out: HeLa / IC50 (nM) ± S.D.)

Row | Compound | IC50 [nM]
1 | COc1ccc(C[C@H]2NC(=O)/C=C/C[C@@H]([C@H](C)[C@H]3O[C@@H]3c3ccccc3)OC(=O)[C@H](CC(C)C)OC(=O)[C@H](C)CNC2=O)cc1Cl [cryptophycin 1] | 0.01 ± 0.004
2 | C=C1C[C@@H]2CC[C@@]34C[C@H]5O[C@H]6[C@@H](O3)[C@H]3O[C@H](CC[C@@H]3O[C@H]6[C@H]5O4)CC(=O)C[C@@H]3[C@@H](OC)[C@@H](C[C@H](O)CN)O[C@H]3C[C@H]3O[C@@H](CC[C@@H]1O2)C[C@@H](C)C3=C [eribulin] | 20
3 | CC(C)[C@H](O)C(=O)N[C@H]1Cc2ccc3c(c2)[C@]24C5=C(N=C(O5)[C@H](C(C)C)NC1=O)c1nc(Cl)c(o1)-c1c(Cl)[nH]c5cccc(c15)-c1cccc2c1N[C@@H]4O3 [Diazonamide A] | 15 ± 5
4 | CN[C@H](C(=O)N[C@H](C(=O)N(C)[C@H](/C=C(\C)C(=O)O)C(C)C)C(C)(C)C)C(C)(C)c1cn(C)c2ccccc12 [hemiasterlin] | 0.25 ± 0.05
5 | CC[C@H](C)[C@@H]([C@@H](CC(=O)N1CCC[C@H]1[C@H](OC)[C@@H](C)C(=O)N[C@@H](Cc1ccccc1)c1nccs1)OC)N(C)C(=O)[C@@H](NC(=O)[C@H](C(C)C)N(C)C)C(C)C [dolastatin 10] | 0.04 ± 0.01
6 | CO[C@@H](/C(C)=C/C=C/C(C)=C/c1coc(C)n1)[C@@H](C)[C@@H]1C[C@H](O)[C@@]2(C)O[C@@H]2/C=C/[C@@H](C)[C@H]2C[C@H](CC(=O)O2)C[C@@H]2O[C@H]2C(=O)O1 [Rhizoxin] | 3 ± 1
7 | CC[C@]1(O)C[C@@H]2CN(CCc3c([nH]c4ccccc34)[C@@](C(=O)OC)(c3cc4c(cc3OC)N(C)[C@H]3[C@@](O)(C(=O)OC)[C@H](OC(C)=O)[C@]5(CC)C=CCN6CC[C@]43[C@@H]65)C2)C1 [vinblastine] | 6 ± 3
8 | COc1cc2cc(c1Cl)N(C)C(=O)C[C@H](OC(=O)[C@H](C)N(C)C(C)=O)[C@]1(C)O[C@H]1[C@H](C)[C@@H]1C[C@@](O)(NC(=O)O1)[C@H](OC)/C=C/C=C(\C)C2 [Maytansine] | 2

Biological target: tubulin (αβ-heterodimer)
Experiment: competition with [3H]spongistatin […], centrifugal gel filtration
Format: binding, Bos taurus
Settings: not given

Row | Compound | Ki [nM]
9 | C=C(Cl)/C=C/C(O)CC(=C)CC1OC2C(C)C(OC(=O)CC3CC(O)CC4(CC(C)(O)CC(/C=C5/COC(C(C)C(=O)CC6CC(OC)CC7(CC(O)CC(/C=C\CCCC8OC(O)(CC(O)C8C)C2O)O7)O6)C5C)O4)O3)C1O (stereo not shown) [spongistatin 5] | 2200

Biological target: tubulin (αβ-heterodimer)
Experiment: [3H] radioligand binding
Set-up: species or system Bos taurus
Settings: not given

Row | Compound | Kd [nM]
10 | spongistatin 1 | 1100 ± 300
